Measurements as given in PMC7999199, “Novel Cationic Meso-Arylporphyrins and Their Antiviral Activity against HSV-1” (Pharmaceuticals, 2021).

Key:
[1] = tested on: HSV-1 replication in Vero cells; test: Influence of the compounds on HSV-1 virus yield during infection of Vero cells (early/late replication stages); format: cell-based, herpes simplex virus type 1; conditions: for stages of HSV-1 replication affected: Vero cells, MOI 0.1; for effect on HSV-1 replication: simultaneous addition with the virus
Description: Porphyrin’s antiviral action was then determined in terms of their effect on the HSV-1 replication stages in Vero cells. A two-part experiment was conducted to evaluate the influence of the obtained compounds on the early or late stages of replication (Figure 6). First, the effect of porphyrins on the initial stages of reproduction was estimated. Thus, HSV-1 at MOI 0.1 was adsorbed on Vero cells in a medium containing the studied porphyrin; then the cell monolayers were washed from the nonadsorbed virus, and porphyrins of the same concentration were introduced into the plate (1) (Vero Cells + HSV-1 + Porphyrin, left arrow. Figure 6), or the cell monolayers were washed from the nonadsorbed virus, and the medium without the test compound was introduced into the cell monolayers microwell plate (2) (Porphyrin + HSV-1 + Porphyrin medium, right arrow. Figure 6).
The influence of porphyrin antiviral activity on the HSV-1 postadsorption stages was simultaneously evaluated in this experiment. The studied compounds were introduced after HSV-1 adsorption on Vero cells and washing of nonadsorbed virus particles (3) (Vero Cells +HSV-1, left arrow. Figure 6) or, after virus adsorption and nonadsorbed virus particles washing, only the medium was introduced (control of virus reproduction) (4) (Vero Cells +HSV-1, right arrow. Figure 6). After the formation of a pronounced cytopathic effect of the virus in control cultures (48 h of cultivation), the virus infection activity of all the samples was determined by titration in a Vero cell culture (Figure 7).
Four variants were used to test compound efficiency in controlling development of infection in Vero cells. The Vero cells were seeded in 24-well plate in 1 mL of DMEM-5% FCS. (1) The cell monolayers were treated simultaneously with HSV-1 (MOI 0.1) in DMEM-1% FCS (900 µL) and investigated compounds in DMEM-1% FCS (100 µL) for 2 h at 36.8 °C in 5% CO2 atmosphere; then the cell monolayers were washed from the nonadsorbed virus and treated with 900 µL of DMEM-1%FCS and the same concentrations of compounds (100 µL). (2) The cell monolayers were treated simultaneously with HSV-1 (MOI 0.1) DMEM-1% FCS (900 µL) and compounds DMEM-1%FCS (100 µL) for 2 h at 36.8 °C in 5% CO2 atmosphere, and then the cell monolayers were washed from the nonadsorbed virus, after which only DMEM-1% FCS (1 mL) was added. (3) The cell monolayers were treated with HSV-1 (MOI 0.1) DMEM-1% FCS (900 µL) and DMEM-1% FCS (100 µL) for 2 h at 36.8 °C in 5% CO2 atmosphere and washed from the nonadsorbed virus; then DMEM-1% FCS (900 µL) and the same compounds in DMEM-1% FCS (100 µL) were added. (4) Control: the cell monolayers were treated with HSV-1 (MOI 0.1) in DMEM-1% FCS (900 µL), and DMEM-1% FCS (100 µL) was added for 2 h at 36.8 °C in 5% CO2 atmosphere and washed from the nonadsorbed virus, and then DMEM-1% FCS (1 mL) was added. In all variants, the treated cells were then incubated at 36.8 °C in 5% CO2 atmosphere.
After the development of a cytopathic effect in control cultures (HSV-1 + medium, 48 h), the virus content was determined in samples of the culture medium by applying ten-fold dilutions (100 µL) on a monolayers of Vero cells in wells of 96-well plates. After three days, virus titers were counted, and the percentage of inhibition regarding the titer of the virus in the control, which was taken as 100%, was determined. The results were presented as the average of three experiments of four replays.
Figure 7 Inhibitory effect of porphyrins on the HSV-1 replication. The Vero cells were treated with compounds 3a (100 µM) (a), 3b (12 µM and 6 µM) (b) and TMePyP (50 µM, 25 µM and 12.5 µM) (c) simultaneously with HSV-1 (MI 0.1) or after HSV-1 (MI 0.1) adsorption. The results are presented as the percentage of the virus titer with porphyrin relative to its titer in the control (without porphyrin), which was taken as 100%. Each bar represents the mean ± deviation. […]

[2] = n-Octanol/PBS partition coefficient; format: physicochemical; conditions: 1-n-octanol/PBS, pH 7; read-out: LogP (LogPow, 1-n-octanol/water partition coefficient)
Description: The normalized UV-vis spectra, as well as the fluorescence spectra in DMSO and ethanol, are shown in Figures S1 and S2 (Supplementary Information). Fluorescence quantum yields were measured as compared with 5,10,15,20-tetrakisphenylporphyrin (TPP) (ΦF = 0.11) and ZnTPP (ΦF = 0.033). For free-base compounds 3a,b fluorescence quantum yields were similar at ca. 0.13 in DMSO and ca. 0.14, respectively. Octanol-water distribution coefficients were calculated using 1-n-octanol and phosphate-buffered saline (PBS), according to the method described in [53]. […] As expected, compound 3a was more hydrophilic (LogPow = −4.86) than 3b (LogPow = −4.6). Such an effect can be associated with the increase in the number of methylene spacers in compound 3b.
The distribution coefficient was measured using 1-n-octanol and phosphate buffered saline (PBS), which were presaturated with each other by the described method. […] The absorption of each layer was measured spectrophotometrically in the region of the Soret band. Partition coefficients were calculated as the ratio between absorption in the Soret band of photosensitizers in organic and aqueous phase and the dilution factors for the organic and aqueous layers, according to the aforementioned method.

SMILES	stages of HSV-1 replication affected [1]	effect on HSV-1 reproduction ([1]; compound only at the cell infection stage (3a + HSV-1 + media), 100 µM, MOI 0.1, 48 h)	effect on HSV-1 reproduction ([1]; compound with virus and after washing (3a + HSV-1 + 3a) or post-infection (HSV-1 + 3a), 100 µM, MOI 0.1, 48 h)	logP [2]	effect on HSV-1 reproduction ([1]; introduced at the stage of virus adsorption, 12 μM)	effect on HSV-1 replication ([1]; 25 μM)	effect on HSV-1 replication ([1]; 50 μM)
O=C(CC[n+]1ccccc1)Oc1ccc(-c2c3nc(c(-c4ccc(OC(=O)CC[n+]5ccccc5)cc4)c4ccc([nH]4)c(-c4ccc(OC(=O)CC[n+]5ccccc5)cc4)c4nc(c(-c5ccc(OC(=O)CC[n+]6ccccc6)cc5)c5ccc2[nH]5)C=C4)C=C3)cc1 [3a]	acts on both the initial and postadsorption stages of virus replication	did not significantly suppress the reproduction of the virus	suppressed the reproduction of the virus	-4.86			
C[n+]1ccc(-c2c3nc(c(-c4cc[n+](C)cc4)c4ccc([nH]4)c(-c4cc[n+](C)cc4)c4nc(c(-c5cc[n+](C)cc5)c5ccc2[nH]5)C=C4)C=C3)cc1 [TMePyP, 5,10,15,20-tetrakis(1-methyl-4-pyridinio)porphyrin tetraiodide, reference compound]	affected both the initial and late stages of virus replication				did not suppress the HSV-1 reproduction	completely suppressed its replication	completely suppressed its replication
